Results on 13 compounds are retold here after US20230413820A1, “HERBICIDAL N-HETEROARYL PYRAZOLE COMPOUNDS” (SYNGENTA CROP PROTECTION AG, priority 2020, published 2023).

Type in all cases: in vivo
Experiment [1] concerns Amaranthus retoflexus (AMARE). The experiment is described as follows: Post-emergence herbicide glasshouse test. Conditions: 250 g/ha, sprayed after 8 days cultivation, evaluated after 13 days. As for the experimental part: (§1) Seeds of a variety of test species (Abutilon theophrasti (ABUTH), Amaranthus retoflexus (AMARE), Echinochloa crus-galli (ECHCG), Ipomoea hederacea (IPOHE), Setaria faberi (SETFA)) are sown in standard soil in pots. After cultivation for one day (pre-emergence) or after 8 days cultivation (post-emergence) under controlled conditions in a glasshouse (at 24/16° C., day/night; 14 hours light; 65% humidity), the plants are sprayed with an aqueous spray solution derived from the formulation of the technical active ingredient in acetone/water (50:50) solution containing 0.5% Tween 20 (polyoxyethelyene sorbitan monolaurate, CAS RN 9005-64-5). Compounds are applied at 250 g/ha unless otherwise stated. The test plants are then grown in a glasshouse under controlled conditions in a glasshouse (at 24/16° C., day/night; 14 hours light; 65% humidity) and watered twice daily. After 13 days for pre- and post-emergence, the test is evaluated for the percentage damage caused to the plant. The biological activities are shown in the following table on a five-point scale (5=81-100%; 4=61-80%; 3=41-60%; 2=21-40%; 1=0-20%).

The subject of experiment [2] is Setaria faberi (SETFA). As to the kind of experiment: Post-emergence herbicide glasshouse test. As to conditions: 250 g/ha, sprayed after 8 days cultivation, evaluated after 13 days. As for the experimental part:
as §1

In experiment [3] the test system is Ipomoea hederacea (IPOHE). The experiment is described as follows: Post-emergence herbicide glasshouse test. As to conditions: 250 g/ha, sprayed after 8 days cultivation, evaluated after 13 days. As for the experimental part:
as §1

The subject of experiment [4] is Echinochloa crus-galli (ECHCG). As to the kind of experiment: Post-emergence herbicide glasshouse test. Conditions: 250 g/ha, sprayed after 8 days cultivation, evaluated after 13 days. As for the experimental part:
as §1

In experiment [5] the test system is Abutilon theophrasti (ABUTH). As to the kind of experiment: Post-emergence herbicide glasshouse test. As to conditions: 250 g/ha, sprayed after 8 days cultivation, evaluated after 13 days. As for the experimental part:
as §1

For experiment [6], the system named is Amaranthus retoflexus (AMARE). As to the kind of experiment: Pre-emergence herbicide glasshouse test. Conditions: 250 g/ha, sprayed after one day cultivation, evaluated after 13 days. As for the experimental part: as §1
Experiment [7] deals with Setaria faberi (SETFA). The experiment is described as follows: Pre-emergence herbicide glasshouse test. Conditions: 250 g/ha, sprayed after one day cultivation, evaluated after 13 days. As for the experimental part:
as §1

Experiment [8] concerns Ipomoea hederacea (IPOHE). The experiment is described as follows: Pre-emergence herbicide glasshouse test. Conditions: 250 g/ha, sprayed after one day cultivation, evaluated after 13 days. As for the experimental part: as §1
In experiment [9] the test system is Echinochloa crus-galli (ECHCG). As to the kind of experiment: Pre-emergence herbicide glasshouse test. As to conditions: 250 g/ha, sprayed after one day cultivation, evaluated after 13 days. As for the experimental part:
as §1

For experiment [10], the system named is Abutilon theophrasti (ABUTH). The experiment is described as follows: Pre-emergence herbicide glasshouse test. Conditions: 250 g/ha, sprayed after one day cultivation, evaluated after 13 days. As for the experimental part:
as §1

Turning to `FC(F)(F)c1cc(Oc2cccc(Cl)n2)n(-c2ncc(Cl)cn2)n1` [Compound 1.001], the “percentage damage caused to the plant, AMARE” value in experiment [1] and in experiment [6] was 5 (5=81-100%) each time. The “percentage damage caused to the plant, SETFA” value with Setaria faberi (SETFA) [2] is on record as 3 (3=41-60%); in the experiment on Setaria faberi (SETFA) [7] it was 5 (5=81-100%). Further, the “percentage damage caused to the plant, IPOHE” value was 2 (2=21-40%) in experiment [3] and 1 (1=0-20%) in experiment [8]. In addition, the “percentage damage caused to the plant, ECHCG” value in experiment [4] was 4 (4=61-80%); in experiment [9], 5 (5=81-100%). Also, the “percentage damage caused to the plant, ABUTH” value in [5] is on record as 2 (2=21-40%); in experiment [10] it was 1 (1=0-20%).
Turning to `FC(F)Oc1cccc(Oc2cc(C(F)(F)F)nn2-c2ncc(Cl)cn2)n1` [Compound 1.002], the “percentage damage caused to the plant, AMARE” value in experiment [1] and in experiment [6] was 5 (5=81-100%) throughout. The “percentage damage caused to the plant, SETFA” value with Setaria faberi (SETFA) [2] and in the experiment on Setaria faberi (SETFA) [7] was 5 (5=81-100%) in each case. The “percentage damage caused to the plant, IPOHE” value is recorded as 4 (4=61-80%) in [3] and 3 (3=41-60%) in [8]. Also, the “percentage damage caused to the plant, ECHCG” value in [4] and in experiment [9] was 5 (5=81-100%) each time. In addition, the “percentage damage caused to the plant, ABUTH” value in experiment [5] is on record as 5 (5=81-100%); in [10] it was 4 (4=61-80%).
Consider `FC(F)c1cccc(Oc2cc(C(F)(F)F)nn2-c2ncc(Cl)cn2)n1` [Compound 1.003], for which the “percentage damage caused to the plant, AMARE” value in experiment [1] and in experiment [6] was 5 (5=81-100%) in each case. The “percentage damage caused to the plant, SETFA” value in the experiment with Setaria faberi (SETFA) [2] was 4 (4=61-80%); in the experiment on Setaria faberi (SETFA) [7], 2 (2=21-40%). Further, the figures for the “percentage damage caused to the plant, IPOHE” value in experiment [3] and in experiment [8] were 4 (4=61-80%) and 2 (2=21-40%), respectively. Besides, the “percentage damage caused to the plant, ECHCG” value in experiment [4] and in experiment [9] was 4 (4=61-80%) each time. The “percentage damage caused to the plant, ABUTH” value in experiment [5] was 3 (3=41-60%); in experiment [10] it was 1 (1=0-20%).
In the case of `FC(F)(F)c1cc(Oc2ccnc(C(F)(F)F)n2)n(-c2ncc(Cl)cn2)n1` [Compound 1.011], the “percentage damage caused to the plant, AMARE” value is on record as 4 (4=61-80%) in experiment [1] and 5 (5=81-100%) in experiment [6]. Also, the entries for the “percentage damage caused to the plant, SETFA” value in the experiment on Setaria faberi (SETFA) [2] and with Setaria faberi (SETFA) [7] were 4 (4=61-80%) and 5 (5=81-100%), respectively. In addition, the “percentage damage caused to the plant, IPOHE” value in experiment [3] and in experiment [8] was 1 (1=0-20%) each time. In addition, the “percentage damage caused to the plant, ECHCG” value in experiment [4] and in [9] was 4 (4=61-80%) in each case.
Turning to `FC(F)(F)c1cc(Oc2ccnc(Cl)n2)n(-c2ncc(Cl)cn2)n1` [Compound 1.012], the “percentage damage caused to the plant, AMARE” value is given as 2 (2=21-40%) in experiment [1] and 3 (3=41-60%) in [6]. The “percentage damage caused to the plant, SETFA” value in the experiment on Setaria faberi (SETFA) [2] was 1 (1=0-20%); in the experiment on Setaria faberi (SETFA) [7], 2 (2=21-40%). For the same compound, the “percentage damage caused to the plant, IPOHE” value in experiment [3] and in experiment [8] was 1 (1=0-20%) throughout. In addition, the “percentage damage caused to the plant, ECHCG” value in [4] and in experiment [9] was 1 (1=0-20%) in each case.
On to `Cc1nccc(Oc2cc(C(F)(F)F)nn2-c2ncc(Cl)cn2)n1` [Compound 1.015], for which the “percentage damage caused to the plant, AMARE” value in experiment [1] is given as 2 (2=21-40%); in experiment [6], 3 (3=41-60%). In addition, the “percentage damage caused to the plant, SETFA” value was 1 (1=0-20%) in the experiment on Setaria faberi (SETFA) [2] and 2 (2=21-40%) in the experiment with Setaria faberi (SETFA) [7]. For the same compound, the “percentage damage caused to the plant, IPOHE” value in [3] and in experiment [8] was 1 (1=0-20%) in each case. Besides, the “percentage damage caused to the plant, ECHCG” value in experiment [4] and in [9] was 1 (1=0-20%) throughout.
With `N#Cc1cccc(Oc2cc(C(F)(F)F)nn2-c2ncc(Cl)cn2)n1` [Compound 1.023], the entries for the “percentage damage caused to the plant, AMARE” value in [1] and in [6] were 4 (4=61-80%) and 5 (5=81-100%), respectively. Moreover, the entries for the “percentage damage caused to the plant, SETFA” value in the experiment with Setaria faberi (SETFA) [2] and in the experiment with Setaria faberi (SETFA) [7] were 4 (4=61-80%) and 5 (5=81-100%), respectively. The entries for the “percentage damage caused to the plant, IPOHE” value in experiment [3] and in experiment [8] were 3 (3=41-60%) and 4 (4=61-80%), respectively. Also, the “percentage damage caused to the plant, ECHCG” value in experiment [4] and in experiment [9] was 4 (4=61-80%) throughout.
Turning to `Fc1cnc(-n2nc(C(F)(F)F)cc2Oc2cccc(C(F)(F)F)n2)nc1` [Compound 1.024], the “percentage damage caused to the plant, AMARE” value is reported as 2 (2=21-40%) in experiment [1] and 5 (5=81-100%) in experiment [6]. Moreover, the “percentage damage caused to the plant, SETFA” value in the experiment on Setaria faberi (SETFA) [2] and with Setaria faberi (SETFA) [7] was 1 (1=0-20%) each time. Besides, the “percentage damage caused to the plant, IPOHE” value in experiment [3] and in experiment [8] was 1 (1=0-20%) each time. In addition, the “percentage damage caused to the plant, ECHCG” value in experiment [4] and in [9] was 1 (1=0-20%) each time.
For the compound `FC(F)Oc1cccc(Oc2cc(C(F)(F)F)nn2-c2ncccn2)n1` [Compound 1.027], the “percentage damage caused to the plant, AMARE” value in experiment [1] is listed as 4 (4=61-80%); in experiment [6], 3 (3=41-60%). The “percentage damage caused to the plant, SETFA” value with Setaria faberi (SETFA) [2] and in the experiment with Setaria faberi (SETFA) [7] was 1 (1=0-20%) throughout. Moreover, the “percentage damage caused to the plant, IPOHE” value in experiment [3] and in experiment [8] was 2 (2=21-40%) throughout. The “percentage damage caused to the plant, ECHCG” value in experiment [4] and in experiment [9] was 1 (1=0-20%) throughout.
For the compound `FC(F)Oc1cnc(-n2nc(C(F)(F)F)cc2Oc2cccc(OC(F)F)n2)nc1` [Compound 1.028], the “percentage damage caused to the plant, AMARE” value in experiment [1] and in [6] was 5 (5=81-100%) throughout. The “percentage damage caused to the plant, SETFA” value in the experiment on Setaria faberi (SETFA) [2] and in the experiment on Setaria faberi (SETFA) [7] was 5 (5=81-100%) in each case. Besides, the “percentage damage caused to the plant, IPOHE” value in experiment [3] is reported as 3 (3=41-60%); in experiment [8], 1 (1=0-20%). For the same compound, the “percentage damage caused to the plant, ECHCG” value in [4] and in experiment [9] was 5 (5=81-100%) in each case.
Take `N#Cc1ccc(-n2nc(C(F)(F)F)cc2Oc2cccc(OC(F)F)n2)nc1` [Compound 1.029]: the “percentage damage caused to the plant, AMARE” value is 5 (5=81-100%) in experiment [1] and 4 (4=61-80%) in experiment [6]. Moreover, the “percentage damage caused to the plant, SETFA” value with Setaria faberi (SETFA) [2] is 1 (1=0-20%); in the experiment with Setaria faberi (SETFA) [7], 2 (2=21-40%). The “percentage damage caused to the plant, IPOHE” value was 3 (3=41-60%) in experiment [3] and 1 (1=0-20%) in [8]. For the same compound, the “percentage damage caused to the plant, ECHCG” value in [4] is 1 (1=0-20%); in [9] it was 2 (2=21-40%).
For the compound `N#Cc1cc(Cl)cnc1-n1nc(C(F)(F)F)cc1Oc1cccc(OC(F)F)n1` [Compound 1.030], the “percentage damage caused to the plant, AMARE” value in experiment [1] was 3 (3=41-60%); in experiment [6], 2 (2=21-40%). The “percentage damage caused to the plant, SETFA” value is 2 (2=21-40%) in the experiment on Setaria faberi (SETFA) [2] and 1 (1=0-20%) in the experiment with Setaria faberi (SETFA) [7]. The “percentage damage caused to the plant, IPOHE” value in experiment [3] and in [8] was 1 (1=0-20%) in each case. The “percentage damage caused to the plant, ECHCG” value in [4] and in experiment [9] was 1 (1=0-20%) each time.
`Fc1cc(Cl)cnc1-n1nc(C(F)(F)F)cc1Oc1cccc(OC(F)F)n1` [Compound 1.031]: the “percentage damage caused to the plant, AMARE” value in experiment [1] is 4 (4=61-80%). Further, the “percentage damage caused to the plant, SETFA” value with Setaria faberi (SETFA) [2] and in the experiment with Setaria faberi (SETFA) [7] was 2 (2=21-40%) each time. Moreover, the “percentage damage caused to the plant, IPOHE” value in experiment [3] and in [8] was 1 (1=0-20%) throughout. The “percentage damage caused to the plant, ECHCG” value in [4] and in experiment [9] was 1 (1=0-20%) in each case.
